Holding throughout (format): cell-based
Experiment [1] addresses T1, human SPPL2a (Homo sapiens, UniProt Q8TCT8).
T1 sequence (Q8TCT8 26-520): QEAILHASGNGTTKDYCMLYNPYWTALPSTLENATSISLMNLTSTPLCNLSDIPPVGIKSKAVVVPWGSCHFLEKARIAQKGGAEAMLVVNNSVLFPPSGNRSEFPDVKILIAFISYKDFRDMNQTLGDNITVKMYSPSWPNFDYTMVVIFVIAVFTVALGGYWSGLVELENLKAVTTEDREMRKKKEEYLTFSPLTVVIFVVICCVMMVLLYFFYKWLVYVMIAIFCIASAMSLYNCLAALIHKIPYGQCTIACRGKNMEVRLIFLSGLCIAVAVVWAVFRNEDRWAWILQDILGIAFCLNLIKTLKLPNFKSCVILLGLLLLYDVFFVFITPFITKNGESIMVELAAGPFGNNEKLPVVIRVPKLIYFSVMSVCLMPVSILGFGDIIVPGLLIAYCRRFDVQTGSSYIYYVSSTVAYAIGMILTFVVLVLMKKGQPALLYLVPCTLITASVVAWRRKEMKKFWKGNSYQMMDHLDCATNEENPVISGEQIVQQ
Kind of experiment: Sppl2a TL (translocation) imaging assay in U-2 OS cells. Set-up: expressed in transfected cells. To be noted: U-2 OS cells expressing human SPPL2a and EGFP-TNFα(aa1-76) NTF substrate; 24 h. The gist of the method:
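U-2 OS cells stably expressing human SPPL2a plus doxycycline-induced EGFP-TNFα(aa1-76) NTF, treated 24 h at 37 °C with inhibitor (100 μM–1 nM, 11 points, 0.9% DMSO, 5 μg/mL doxycycline). Imaging of nuclear-minus-cytoplasmic EGFP intensity; % inhibition versus 0.5 μM LY-411,575 and DMSO, IC50 by nonlinear regression; CC50 from cell count.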

In experiment [2] the target is T1, human SPPL2a. Kind of experiment: Sppl2a RGA (reporter gene assay) in HEK293 cells. Set-up: expressed in transfected cells; host or cells: HEK293 (transient). To be noted: NT-TNF-VP16-Gal4 substrate, Gal4-luciferase reporter, 24 h. The gist of the method: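 Cleavage of a membrane-bound TNF N-terminal–VP16-Gal4 substrate drives Gal4-luciferase expression in transiently transfected HEK293 cells also expressing human SPPL2a. Compounds incubated 24 h, 37 °C, 5% CO2; luminescence read, normalized and plotted against concentration for IC50.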
(Reporter assays use an easily measured gene product as a stand-in for the process of interest.)

A further experiment concerns the target T2, Sppl2a CD74 (Mus musculus, UniProt Q9JJF9).
T2 construct: Mouse whole blood Balb/c mice (sodium citrate) was ordered by Bioreclamation LLC; tissue Bioreclamation LLC
T2 sequence (Q9JJF9 26-523): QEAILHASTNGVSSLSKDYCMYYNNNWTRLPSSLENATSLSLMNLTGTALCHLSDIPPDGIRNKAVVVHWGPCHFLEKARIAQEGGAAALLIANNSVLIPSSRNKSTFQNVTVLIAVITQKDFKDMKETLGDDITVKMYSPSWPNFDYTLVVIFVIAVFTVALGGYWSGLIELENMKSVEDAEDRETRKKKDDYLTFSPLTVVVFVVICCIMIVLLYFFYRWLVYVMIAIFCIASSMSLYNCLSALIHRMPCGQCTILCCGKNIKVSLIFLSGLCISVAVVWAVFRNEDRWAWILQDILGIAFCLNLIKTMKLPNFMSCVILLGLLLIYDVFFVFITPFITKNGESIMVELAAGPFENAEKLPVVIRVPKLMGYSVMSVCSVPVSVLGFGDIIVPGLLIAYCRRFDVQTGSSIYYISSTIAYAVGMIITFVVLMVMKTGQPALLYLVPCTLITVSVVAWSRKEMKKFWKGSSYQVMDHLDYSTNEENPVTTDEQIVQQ
The experiment can be described thus: CD74/p8 mouse whole blood assay, flow cytometry format. Particulars: Balb/c mouse whole blood, 5 h, CD74 signal on gated live B cells. As for the experimental part: CD74/p8 Mouse Whole Blood Assay: Flow Cytometry Format
Mouse whole blood Balb/c mice (sodium citrate) was ordered by Bioreclamation LLC; USA. The blood was used the next day upon receipt (stored at 4° C.). 100 μL blood were transferred in 96 well format plate, where compounds, an 11 point dilutions down from 30 μM, to be tested were previously deposited. The plate was incubated for 5 h in the incubator at 37° C., 5% CO2 under continuous motion. After the incubation the blood was diluted with RBC Lysis Buffer (Amined; Cat. Nr 3-13F00-H or BD; Cat. Nr 555899). The solution was mixed by pipetting and incubated 10 min in the 37° C. incubator. The white blood cells were sedimented for 3 min at 2000 rpm. After removing the supernatant the cell pellet was resuspended and washed twice in RCB Buffer and kept≈ 5 min at room temperature, followed by a centrifugation for 2 min at 2000 rpm. The cell pellet was then resuspend in D-PBS and centrifuged twice. Finally, the cells were taken up in of D-PBS/0.5% inactivated fetal bovine serum/2 mM EDTA. The cell suspension was treated with Live/Dead fixable stain (Life Technologies, >470 nm version), B cells were identified by surface staining with an anti-B220 antibody coupled to APC fluorofor. After staining, the cells were extensively washed with PBS. The cells were permeabilized and fixed in FACS lysing buffer; (BD; #349202, dil 1:10 in water) and labelled with an anti CD74, FITC labelled antibody, washed once more with diluted FACS lysing buffer and spin down. The cell pellet was washed with D-PBS/0.5% inactivated fetal bovine serum/2 mM EDTA and PBS prior to the analysis in a flow cytometer. The compound concentrations were plotted against the intensity (medium fluorescence intensity) of the CD74 signal on the gated life B cell and IC50 were determined by fitting data for a 11 concentrations dose response.
(In general: A flow cytometer gives signals particle by particle.)

The term IC50 denotes the point on the concentration scale where inhibition reaches its midpoint. The low end stands for inhibition by little substance, the high end for a need for much substance. Take `COCC[C@H](CNC(=O)c1sc(-c2cc(C)no2)nc1C)C(=O)N[C@@H]1C(=O)N2CCCN2Cc2ccccc21` [Example 42, N-((R)-4-Methoxy-2-(((S)-11-oxo-2,3,10,11-tetrahydro-1H,5H-benzo[d]pyrazolo [1,2-a][1,2]diazepin-10-yl)carbamoyl)butyl)-4-methyl-2-(3-methylisoxazol-5-yl)thiazole-5-carboxamide]: the IC50 on human SPPL2a [1] was found to be 62 nM; on human SPPL2a [2] it was 27 nM; on Sppl2a CD74, 847 nM.
The matching figures for `CCn1nc(-c2cc(C)no2)cc1NC(=O)C[C@@H](C)C(=O)N[C@@H]1C(=O)N2CCCN2Cc2ccccc21` [Example 101, (R)-N^4-(1-Ethyl-3-(3-methylisoxazol-5-yl)-1H-pyrazol-5-yl)-2-methyl-N^1-((S)-11-oxo-2,3,10,11-tetrahydro-1H,5H-benzo[d]pyrazolo [1,2-a][1,2]diazepin-10-yl)succinamide]: 15 nM, 7 nM and 473 nM.
For `C[C@H](CC(=O)Nc1cc(NC(=O)c2cccc(F)c2F)nn1C)C(=O)N[C@@H]1C(=O)N2CCCN2Cc2ccccc21` [Example 76, (R)-N^4-(3-(2,3-Difluorobenzamido)-1-methyl-1 H-pyrazol-5-yl)-2-methyl-N^1-((S)-11-oxo-2,3,10,11-tetrahydro-1H,5H-benzo[d]pyrazolo [1,2-a][1,2]diazepin-10-yl)succinamide], the IC50 was 5 nM on human SPPL2a [1], 7 nM at human SPPL2a [2] and 1690 nM against Sppl2a CD74.
With `CC[C@H](CNC(=O)c1sc(-c2cnn(C(F)F)c2)nc1Cl)C(=O)N[C@@H]1C(=O)N2CC3(CC3)CN2C(=O)c2ccccc21` [Example 45, 4-Chloro-2-(1-(difluoromethyl)-1H-pyrazol-4-yl)-N-((R)-2-(((S)-5,11-dioxo-10,11-dihydro-1H,3H,5H-spiro[benzo[d]pyr-azolo[1,2-a][1,2]diazepine-2,1′-cyclopropan]-10-yl)carbamoyl)butyl) thiazole-5-carboxamide], the IC50 on human SPPL2a [1] stood at 78 nM; against human SPPL2a [2], 86 nM; on Sppl2a CD74, 2510 nM.
Regarding `CNC(=O)c1nc(C)c(C(=O)NC[C@H](C(=O)N[C@@H]2C(=O)N3CCCN3Cc3ccccc32)C2CC2)s1` [Example 9, N^5-((R)-2-Cyclopropyl-3-oxo-3-(((S)-11-oxo-2,3,10,11-tetrahydro-1H,5H-benzo[d]pyrazolo [1,2-a][1,2]diazepin-10-yl)amino)propyl)-N^2,4-dimethylthiazole-2,5-dicarboxamide], the IC50 against human SPPL2a [1] was determined as 3 nM; at human SPPL2a [2], 4 nM; on Sppl2a CD74, 157 nM.
For `CC[C@H](CNC(=O)c1sc(-c2ccno2)nc1C)C(=O)N[C@@H]1C(=O)N2CCCN2Cc2ccccc21` [Example 32, 2-(Isoxazol-5-yl)-4-methyl-N-((R)-2-(((S)-11-oxo-2,3,10,11-tetrahydro-1H,5H-benzo[d]pyrazolo [1,2-a][1,2]diazepin-10-yl)carbamoyl)butyl) thiazole-5-carboxamide], the IC50 on human SPPL2a [1] amounted to 37 nM; at human SPPL2a [2], 10 nM; on Sppl2a CD74 it was 174 nM.
The like results for `Cc1nc(C(=O)NC(C)C)sc1NC(=O)C[C@@H](C)C(=O)N[C@@H]1C(=O)N2CCCN2Cc2ccccc21` [Example 66, (R)-N^4-(2-(Isopropylcarba-moyl)-4-methylthiazol-5-yl)-2-methyl-N^1-((S)-11-oxo-2,3,10,11-tetrahydro-1H,5H-benzo[d]pyrazolo [1,2-a][1,2]diazepin-10-yl)succinamide] were, in that order, 2 nM, 2 nM and 136 nM.
For `CC[C@H](CNC(=O)c1sc(C(=O)NCC(F)F)nc1C)C(=O)N[C@@H]1C(=O)N2CCCN2Cc2ccccc21` [Example 8, N^2-(2,2-Difluoroethyl)-4-methyl-N^5-((R)-2-(((S)-11-oxo-2,3,10,11-tetrahydro-1H,5H-benzo[d]pyrazolo [1,2-a][1,2]diazepin-10-yl)carbamoyl)butyl) thiazole-2,5-dicarboxamide], the IC50 came to 3 nM against human SPPL2a [1], 4 nM against human SPPL2a [2] and 2430 nM on Sppl2a CD74.
On to `COCc1nc(C)c(C(=O)NC[C@H](C(=O)N[C@@H]2C(=O)N3CCCN3Cc3ccccc32)C(F)(F)F)s1` [Example 52, 2-(Methoxymethyl)-4-methyl-N-((R)-3,3,3-trifluoro-2-(((S)-11-oxo-2,3,10,11-tetrahydro-1H,5H-benzo[d]pyrazolo [1,2-a][1,2]diazepin-10-yl)carbamoyl)pro-pyl)thiazole-5-carboxamide], for which the IC50 was determined as 118 nM against human SPPL2a [1], 30 nM against human SPPL2a [2] and 148 nM against Sppl2a CD74.
Regarding `CC(C)NC(=O)c1nc(Cl)c(NC(=O)C[C@@H](C)C(=O)N[C@@H]2C(=O)N3CCCN3Cc3ccccc32)s1` [Example 64, (R)-N^4-(4-Chloro-2-(isopropylcarba-moyl)thiazol-5-yl)-2-methyl-N^1-((S)-11-oxo-2,3,10,11-tetrahydro-1H,5H-benzo[d]pyrazolo [1,2-a][1,2]diazepin-10-yl)succinamide], the IC50 stood at 1 nM at human SPPL2a [1], 3 nM against human SPPL2a [2] and 230 nM on Sppl2a CD74.
For the compound `C[C@H](CC(=O)Nc1cc(C(=O)NC2CC2)nn1C)C(=O)N[C@@H]1C(=O)N2CCCN2Cc2ccccc21` [Example 102, (R)-N^4-(3-(Cyclopropylcar-bamoyl)-1-methyl-1H-pyrazol-5-yl)-2-methyl-N^1-((S)-11-oxo-2,3,10,11-tetrahydro-1H,5H-benzo[d]pyrazolo [1,2-a][1,2]diazepin-10-yl)succinamide], the IC50 on human SPPL2a [1] is 17 nM; on human SPPL2a [2] it was 123 nM; against Sppl2a CD74, 1520 nM.
For `Cc1nc(C(=O)NC(C)C)sc1C(=O)NC[C@H](C(=O)N[C@@H]1C(=O)N2CCCN2Cc2ccccc21)C(F)(F)F` [Example 14, N^2-Isopropyl-4-methyl-N^5-((R)-3,3,3-trifluoro-2-(((S)-11-oxo-2,3,10,11-tetrahydro-1H,5H-benzo[d]pyrazolo [1,2-a][1,2]diazepin-10-yl)carbamoyl)pro-pyl)thiazole-2,5-dicarboxamide], the IC50 on human SPPL2a [1] amounted to 7 nM; against human SPPL2a [2] it was 3 nM; against Sppl2a CD74, 269 nM.
As for `CCn1nc(-c2ccco2)cc1NC(=O)C[C@@H](C)C(=O)N[C@@H]1C(=O)N2CCCN2Cc2ccccc21` [Example 85, (R)-N^4-(1-Ethyl-3-(furan-2-yl)-1H-pyrazol-5-yl)-2-methyl-N^1-((S)-11-oxo-2,3,10,11-tetrahydro-1H,5H-benzo[d]pyrazolo [1,2-a][1,2]diazepin-10-yl)succinamide], the IC50 at human SPPL2a [1] stood at 10 nM; against human SPPL2a [2], 22 nM; at Sppl2a CD74, 203 nM.

Source of the values: US20230365571A1, “COMPOUNDS AND COMPOSITIONS AS Sppl2a INHIBITORS” (Novartis AG, priority 2020, published 2023).
